Results reported in patent US20070037709A1, “Polyethylene glycol esters of r-(+)-mcpp acid” (priority 2003, published 2007).
Where two headings read alike, the source gives them in different places.

Key:
lupin = system: lupin
Protocol: The compounds and mixtures of Examples 1 and 2 were tested for their activity for root penetration inhibition as specified in DIN 4062 (lupin test): […]

undesired plants = details: crop protection; cited from earlier work

Row | Compound | Root penetration into (number) (lupin; Concentration 0.1%) | Root penetration through (number) (lupin; Concentration 0.1%) | Root penetration into (number) (lupin; Concentration 0.2%) | Root penetration through (number) (lupin; Concentration 0.2%) | Root penetration into (number) (lupin; Concentration 0.5%) | Root penetration through (number) (lupin; Concentration 0.5%) | Root penetration into (number) (lupin; Concentration 1.0%) | Root penetration through (number) (lupin; Concentration 1.0%) | herbicidal effectiveness compared with the S-(−) isomer or the racemic mixture (undesired plants)
1 | Cc1cc(Cl)ccc1O[C@@H](C)C(=O)OCCOCCOCCOCCOC(=O)[C@H](C)Oc1ccc(Cl)cc1C [Example 4, diester of tetraethylene glycol with S-(−)-2-(4-chloro-2-methylphenoxy)propionic acid] | >50 number | >50 | >50 number | >50 | >50 number | >50 | approx. 40 number | approx. 40 number | –
2 | Cc1cc(Cl)ccc1O[C@H](C)C(=O)O [R-(+) isomer, R-(+)-2-(4-chloro-2-methylphenoxy)propionic acid] | – | – | – | – | – | – | – | – | markedly more effective
3 | Cc1cc(Cl)ccc1OC(C)C(=O)OCCOCCOCCOCCOC(=O)C(C)Oc1ccc(Cl)cc1C (racemic) [Example 2, diester of tetraethylene glycol with rac-2-(4-chloro-2-methylphenoxy)propionic acid] | approx. 40 number | 1 | approx. 40 number | 0 | approx. 10 number | 0 | 0 number | 0 number | –
4 | Cc1cc(Cl)ccc1O[C@H](C)C(=O)OCCOCCOCCOCCOC(=O)[C@@H](C)Oc1ccc(Cl)cc1C [Example 1, diester of tetraethylene glycol with R-(+)-2-(4-chloro-2-methylphenoxy)propionic acid] | approx. 40 number | 0 | approx. 15 number | 0 | 1 number | 0 | – | – | –
